Key:
[1] = Inhibition of human GSK3 using biotin-CREB peptide substrate after 1 hr by scintillation counting method
[2] = Inhibition of GSK3 expressed in CHO-IR cells expressing human insulin receptor assessed as glycogen synthase activation after 30 mins by filter paper assay; assay type: cell-based, Cavia porcellus
[3] = Stability in rat liver microsomes assessed as half life; assay type: ADME, microsome
[4] = Stability in dog liver microsomes assessed as half life; assay type: ADME, Canis lupus familiaris, microsome
[5] = Plasma concentration in diabetic db/db mouse at 30 mg/kg administered at 4.5 and 0.5 hrs prior to oral glucose challenge measured 20 mins post second dose; conditions: plasma

Row | SMILES | IC50 [1] [nM] | EC50 [2] [nM] | half-life [3] [min] | half-life [4] [min] | concentration at 20 min [5] [ng/mL]
1 | Nc1nc(NCCNc2ncc(-c3ncc[nH]3)c(-c3ccc(Cl)cc3)n2)ccc1[N+](=O)[O-] | 31 | 2500 | > 30 | > 30 | 
2 | Nc1nc(NCCNc2ncc(-c3ncc[nH]3)c(-c3cc(F)c(Cl)cc3Cl)n2)ccc1[N+](=O)[O-] | 13 | 2280 | > 30 | > 30 | 
3 | Nc1cnc(NCCNc2ccc([N+](=O)[O-])c(N)n2)nc1-c1ccc(Cl)cc1Cl | 10 | 290 |  |  | 1000
4 | Nc1nc(NCCNc2ncc(-c3ncc[nH]3)c(-c3ccc(Br)cc3F)n2)ccc1[N+](=O)[O-] | 5 | 500 | > 30 | > 30 | 
5 | Nc1nc(NCCNc2ncc(CO)c(-c3ccc(Cl)cc3Cl)n2)ccc1[N+](=O)[O-] | 7 | 150 |  |  | 12000
6 | Nc1nc(NCCNc2ncc(-c3ncc[nH]3)c(-c3ccc(F)cc3Cl)n2)ccc1[N+](=O)[O-] | 7 | 420 | > 30 | > 30 | 
7 | Clc1ccc(-c2nc(NCCNc3ccccn3)ncc2-c2ncc[nH]2)c(Cl)c1 | 2860 |  | > 30 | > 30 | 
8 | Nc1nc(NCCNc2ncc(-c3ncc[nH]3)c(-c3ccccc3Br)n2)ccc1[N+](=O)[O-] | 7 | 240 | > 30 | > 30 | 
9 | Nc1nc(NCCNc2ncc(-c3ncc[nH]3)c(-c3ccc(F)cc3C(F)(F)F)n2)ccc1[N+](=O)[O-] | 13 | 3300 | > 30 | > 30 | 
10 | Nc1nc(NCCNc2ncc(-c3ncc[nH]3)c(-c3cc(F)c(Cl)cc3F)n2)ccc1[N+](=O)[O-] | 19 | 2190 | > 30 | > 30 | 
11 | Nc1nc(NCCNc2ncc(-c3ncc[nH]3)c(-c3ccccc3Cl)n2)ccc1[N+](=O)[O-] | 12 | 730 | > 30 | > 30 | 
12 | Nc1nc(NCCNc2ncc(-c3ncc[nH]3)c(-c3cc(F)ccc3F)n2)ccc1[N+](=O)[O-] | 47 | 3000 | > 30 | > 30 | 
13 | Nc1nc(NCCNc2ncc(-c3ncc[nH]3)c(-c3ccc(C(F)(F)F)cc3)n2)ccc1[N+](=O)[O-] | 51 | 5920 | > 30 | > 30 | 
14 | FC(F)(F)c1ccc(NCCNc2ncc(-c3ncc[nH]3)c(-c3ccc(Cl)cc3Cl)n2)nc1 | 35 | 1240 | > 30 | > 30 | 
15 | COc1ccc(-c2nc(NCCNc3ccc([N+](=O)[O-])cn3)ncc2-n2ccnc2)cc1 | 68 | 2100 |  |  | 
16 | Cc1cc(Cl)ccc1-c1nc(NCCNc2ccc([N+](=O)[O-])c(N)n2)ncc1-c1ncc[nH]1 | 19 | 810 | > 30 | > 30 | 
17 | O=[N+]([O-])c1cnc(NCCNc2ncc(-n3ccnc3)c(-c3ccc(Cl)cc3Cl)n2)s1 | 24 | > 10000 |  |  | 
18 | CC(C)[C@H](N)C(=O)Nc1cnc(NCCNc2ccc([N+](=O)[O-])c(N)n2)nc1-c1ccc(Cl)cc1Cl | 14 | 860 |  |  | 
19 | Nc1nc(NCCNc2ncc(N3CCNCC3)c(-c3ccc(Cl)cc3Cl)n2)ccc1[N+](=O)[O-] | 18 | 510 |  |  | 
20 | Cc1ccc(-c2nc(NCCNc3ccc([N+](=O)[O-])c(N)n3)ncc2-c2ncc[nH]2)c(Br)c1 | 4 | 50 | > 30 | > 30 | 
21 | Clc1ccc(-c2nc(NCCNc3cc(Cl)ncn3)ncc2-n2ccnc2)c(Cl)c1 | 201 | 3900 |  |  | 
22 | COc1cc(Cl)ccc1-c1nc(NCCNc2ccc([N+](=O)[O-])c(N)n2)ncc1-c1ncc[nH]1 | 249 |  | > 30 | > 30 | 
23 | Nc1nc(NCCNc2ncc(-c3ncc[nH]3)c(-c3cc(F)ccc3Cl)n2)ccc1[N+](=O)[O-] | 32 |  | > 30 | > 30 | 
24 | CCc1ccc(-c2nc(NCCNc3ccc([N+](=O)[O-])cn3)ncc2-n2ccnc2)cc1 | 9 | 100 |  |  | 

Row | SMILES | IC50 [1] [nM] | EC50 [2] [nM] | half-life [3] [min] | half-life [4] [min] | concentration at 20 min [5] [ng/mL]
25 | CN(C)CCN(CCNc1ccc([N+](=O)[O-])cn1)c1ncc(-n2ccnc2)c(-c2ccc(Cl)cc2Cl)n1 | 35 | 350 |  |  | 
26 | O=[N+]([O-])c1ccc(NCCNc2ncc(-n3ccnc3)c(-c3ccccc3Cl)n2)nc1 | 24 | 1240 |  |  | 
27 | N#Cc1ccc(-c2nc(NCCNc3ccc([N+](=O)[O-])c(N)n3)ncc2-c2ncc[nH]2)cc1 | 7 | > 10000 | > 30 | > 30 | 
28 | O=[N+]([O-])c1ccc(NCCNc2ncc(-n3cnnn3)c(-c3ccc(Cl)cc3Cl)n2)nc1 | 15 | 280 |  |  | 
29 | N#Cc1ccc(-c2nc(NCCNc3ccc([N+](=O)[O-])cn3)ncc2C(=O)OCCO)cc1 | 51 | 8300 |  |  | 
30 | Nc1nc(NCCNc2ncc(-c3ncc[nH]3)c(-c3ccc(Cl)cc3F)n2)ccc1[N+](=O)[O-] | 5 | 1020 | > 30 | > 30 | 
31 | CN1CCCC1CCN(CCNc1ccc([N+](=O)[O-])cn1)c1ncc(-n2ccnc2)c(-c2ccc(Cl)cc2Cl)n1 (centres undefined) | 27 | 110 |  |  | 
32 | CN(C)CCN(C)C(=O)c1cnc(NCCNc2ccc([N+](=O)[O-])cn2)nc1-c1ccc(C#N)cc1 | 140 | > 10000 |  |  | 
33 | Nc1nc(NCCNc2ncc(-c3ncc[nH]3)c(-c3ccc(F)cc3Br)n2)ccc1[N+](=O)[O-] | 4 | 220 | > 30 | > 30 | 
34 | CNC(=O)c1cnc(NCCNc2ccc([N+](=O)[O-])cn2)nc1-c1ccc(C#N)cc1 | 33 | > 10000 |  |  | 
35 | Clc1ccc(-c2nc(NCCNc3nc4ccc(Cl)cc4s3)ncc2-n2ccnc2)c(Cl)c1 | 527 | 12700 |  |  | 
36 | CN(C)CCOC(=O)c1cnc(NCCNc2ccc([N+](=O)[O-])cn2)nc1-c1ccc(C#N)cc1 | 50 | 3400 |  |  | 
37 | O=[N+]([O-])c1ccc(NCCN(CCN2CCCC2)c2ncc(-n3ccnc3)c(-c3ccc(Cl)cc3Cl)n2)nc1 | 26 | 370 |  |  | 
38 | Nc1nc(NCCNc2ncc(-c3ncc[nH]3)c(-c3cc(F)c(F)cc3F)n2)ccc1[N+](=O)[O-] | 38 | 6880 | > 30 | > 30 | 
39 | O=[N+]([O-])c1ccc(NCCNc2ncc(-n3ccnc3)c(-c3ccc(C(F)(F)F)cc3)n2)nc1 | 40 | 2500 |  |  | 
40 | CN(C)CC(=O)Nc1cnc(NCCNc2ccc([N+](=O)[O-])c(N)n2)nc1-c1ccc(Cl)cc1Cl | 25 | 670 |  |  | 
41 | Nc1nc(NCCNc2ncc(-c3ncc[nH]3)c(-c3ccc(Br)cc3Cl)n2)ccc1[N+](=O)[O-] | 4 | 430 | > 30 | > 30 | 
42 | O=[N+]([O-])c1ccc(NCCN(CCN2CCOCC2)c2ncc(-n3ccnc3)c(-c3ccc(Cl)cc3Cl)n2)nc1 | 15 | 280 |  |  | 
43 | Nc1nc(NCCNc2ncc(-c3ncc[nH]3)c(-c3ccc(F)cc3F)n2)ccc1[N+](=O)[O-] | 9 | 5650 | > 30 | > 30 | 
44 | Nc1nc(NCCNc2ncc(NC(=O)NCCN3CCOCC3)c(-c3ccc(Cl)cc3Cl)n2)ccc1[N+](=O)[O-] | 16 | 3000 |  |  | 
45 | Cc1nc(-c2cnc(NCCNc3ccc([N+](=O)[O-])c(N)n3)nc2-c2ccc(Cl)cc2Cl)n(C)c1C | 22 | 320 |  |  | 
46 | CN(C)C(=O)c1cnc(NCCNc2ccc([N+](=O)[O-])cn2)nc1-c1ccc(C#N)cc1 | 61 | 8700 |  |  | 
47 | Cc1ccc(-c2nc(NCCNc3ccc([N+](=O)[O-])cn3)ncc2-n2ccnc2)c(C)c1 | 38 | 4200 |  |  | 
48 | O=[N+]([O-])c1ccc(NCCNc2ncc(-n3ccnc3)c(-c3ccc(N4CCOCC4)cc3)n2)nc1 | 29 | 6100 |  |  | 
